Results on 81 compounds are retold here after PubChem BioAssay AID1205 (EPA DSSTox, 2008).

Activity calls are given as the source filed them.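 The calls were made as follows: active = tumour findings in long-term animal cancer tests in more than one sex, species or organ; inactive = no tumour finding and more than one negative test.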 *1 amine or outer side, *2 acyl side, *3 side chain or, on linkers, in order; H or OH if unused. Where a SMILES comes first, the peptide text is derived from it. Bridges are numbered along the chain shown (N, C = ends). Roman numbers before positions name the chains, in order. [ ]: non-standard residue; d: D form. Actinocin(9to1) = Cc1c2oc3c(C)ccc(C(=O)[*:1])c3nc-2c(C(=O)[*:2])c(N)c1=O; NMeV = CN[C@H](C(=O)O)C(C)C; Sar = CNCC(=O)O

This series in a line: DSSTox (CPDBAS) Carcinogenic Potency Database Summary MultiCellCall Results. The conditions noted are these: animal carcinogenicity bioassays, multi-cell call summary. An outline of the steps:
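Summary call drawn from chronic long-term cancer bioassays in rats, mice, hamsters, dogs and nonhuman primates, using the most positive result per sex-species. Score: multispecies=50, multisex=30, multisite=20, summed for combinations.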

For `CN(C)C(=S)SC(=S)N(C)C`, the outcome was “inactive; multisex inactive”.

For the compound `C=CC(=O)OCC`, the outcome is “active; multisex active; multispecies active”.

For the compound `CC(=O)CN(N=O)C(=O)NCCCl`, the outcome was “active; multisex active”.

With `Nc1ccc(Cc2ccc(N)cc2)cc1`, the outcome is “active; multisite active; multisex active; multispecies active”.

Turning to `O=C1c2ccccc2C(=O)N1SC(Cl)(Cl)Cl`, the outcome is “active; multisite active; multisex active”.

Consider `O=S1OCC2C(CO1)C1(Cl)C(Cl)=C(Cl)C2(Cl)C1(Cl)Cl` (stereo unspecified), for which the outcome was “inactive; multisex inactive; multispecies inactive”.

Turning to `COc1ccc(N)c(OC)c1`, the outcome is “inactive; multisex inactive; multispecies inactive”.

As to `C#C[C@]1(OC(C)=O)CC[C@H]2[C@@H]3CCC4=CC(=O)CC[C@@H]4[C@H]3CC[C@@]21C`, the outcome was “active; multisite active; multispecies active”.

As to `CC(/C=C/C=C(\C)C(=O)O[C@@H]1O[C@H](CO[C@@H]2O[C@H](CO)[C@@H](O)[C@H](O)[C@H]2O)[C@@H](O)[C@H](O)[C@H]1O)=C\C=C\C=C(C)\C=C\C=C(/C)C(=O)O[C@@H]1O[C@H](CO[C@@H]2O[C@H](CO)[C@@H](O)[C@H](O)[C@H]2O)[C@@H](O)[C@H](O)[C@H]1O`, the outcome is “inactive; multisex inactive”.

Consider `O=P(OC(CCl)CCl)(OC(CCl)CCl)OC(CCl)CCl`, for which the outcome was “active; multisite active; multisex active”.

For `Cc1ccc(Cl)cc1N`, the outcome is “active; multisite active; multisex active”.

As for `CN(C)C=O`, the outcome was “inactive; multisex inactive; multispecies inactive”.

For `CC(=O)NCc1nc(-c2ccc([N+](=O)[O-])o2)no1`, the outcome is “active; multisite active”.

Take `NC(=O)NNc1ccccc1`: the outcome is “active; multisex active”.

For `CNC(=O)Oc1cccc2c1OC(C)(C)C2`, the outcome was “inactive; multisex inactive”.

For the compound `CN(CCc1ccccc1)N=O`, the outcome is “active; multisite active”.

Turning to `Nc1ccc2c(c1)C(=O)c1ccccc1C2=O`, the outcome was “active; multisite active; multisex active; multispecies active”.

As for `O=P(OCC(Br)CBr)(OCC(Br)CBr)OCC(Br)CBr` (stereo unspecified), the outcome is “active; multisite active; multisex active; multispecies active”.

`CN(C)C(=S)[S-].CN(C)C(=S)[S-].[Cu+2]`: the outcome is “inactive; multisex inactive”.

`Cc1ncc[nH]1`: the outcome was “active; multisite active; multisex active; multispecies active”.

Consider `O=C1CN(/N=C/c2ccc([N+](=O)[O-])o2)C(=O)N1`, for which the outcome was “active; multisite active; multisex active; multispecies active”.

With `O=S(=O)(O)c1c(N=Nc2c(O)ccc3ccccc23)ccc2ccccc12`, the outcome is “inactive; multisex inactive”.

For the compound `O=NN(CCCC(F)(F)F)CCCC(F)(F)F`, the outcome is “active; multisite active; multisex active”.

With `C=Cc1ccc(C)cc1`, the outcome is “inactive; multisex inactive”.

Take `O=C(O)CCCc1ccc(N(CCCl)CCCl)cc1`: the outcome was “active; multisite active; multisex active; multispecies active”.

On to `CC1=C(/C=C/C(C)=C/C=C/C(C)=C/C(=O)O)C(C)(C)CCC1`, for which the outcome was “inactive; multisex inactive; multispecies inactive”.

Consider `c1ccc2sc(SSc3nc4ccccc4s3)nc2c1`, for which the outcome was “inactive; multisex inactive”.

As for `CC(=O)Nc1nc(-c2ccc([N+](=O)[O-])o2)cs1`, the outcome is “active; multisite active; multisex active; multispecies active”.

For the compound `[N-]=[N+]=[N-]`, the outcome was “inactive; multisex inactive”.

For `C=CCOc1ccccc1OCC(O)CNC(C)C` (stereo unspecified), the outcome is “inactive; multisex inactive; multispecies inactive”.

With `O=NN(c1ccccc1)c1ccccc1`, the outcome was “active; multisex active”.

For `C=CCc1ccc(O)c(OC)c1`, the outcome was “inactive; multisex inactive; multispecies inactive”.

As for `Cc1cc(C)c(N)cc1C`, the outcome was “active; multisite active; multisex active; multispecies active”.

`N`: the outcome was “inactive; multisex inactive”.

With `O=S(O)S(=O)(=O)O`, the outcome was “inactive; multisex inactive”.

In the case of `COc1cc(-c2ccc(N=C=O)c(OC)c2)ccc1N=C=O`, the outcome was “active; multisite active; multisex active”.

Consider `Cc1cc(C)c(N=Nc2c(O)c(S(=O)(=O)O)cc3cc(S(=O)(=O)O)ccc23)cc1C`, for which the outcome was “active; multisex active”.

As for `Nc1cc(S(=O)(=O)[O-])cc2cc(S(=O)(=O)[O-])c(N=Nc3ccc(-c4ccc(N=Nc5c(S(=O)(=O)[O-])cc6cc(S(=O)(=O)[O-])cc(N)c6c5O)c(O)c4)cc3O)c(O)c12.[Cu].[Cu].[Na+].[Na+].[Na+].[Na+]`, the outcome was “active; multisite active; multisex active; multispecies active”.

For the compound `CC(=O)NNc1ccccc1`, the outcome was “active; multisex active”.

For the compound `CC[N+](=O)[O-]`, the outcome is “inactive; multisex inactive”.

`CCSCCC(N)C(=O)O` (stereo unspecified): the outcome is “active; multisex active; multispecies active”.

Consider `CN(N=O)C(=O)c1ccccc1`, for which the outcome is “active; multisite active; multisex active”.

With `O=C(NCC1CCCCN1)c1cc(OCC(F)(F)F)ccc1OCC(F)(F)F` (stereo unspecified), the outcome is “inactive; multisex inactive; multispecies inactive”.

On to `CC(C)OC(=O)Nc1ccccc1`, for which the outcome is “inactive; multisex inactive; multispecies inactive”.

Regarding `CN(C)CCOc1ccc(/C(=C(/CCCl)c2ccccc2)c2ccccc2)cc1`, the outcome was “inactive; multisex inactive”.

With `NN`, the outcome was “active; multisite active; multisex active; multispecies active”.

In the case of `CN(C)c1ccc(Cc2ccc(N(C)C)cc2)cc1`, the outcome is “active; multisite active; multisex active; multispecies active”.

On to `NC(=S)Nc1ccccc1`, for which the outcome was “inactive; multisex inactive; multispecies inactive”.

For `CN1[C@@H]2CC[C@H]1CC(OC(=O)C(CO)c1ccccc1)C2` (stereo partly specified), the outcome was “inactive; multisex inactive”.

For the compound `CC[N+]([O-])=NC`, the outcome was “active; multisite active”.

`COP(=O)(OC)OC=C(Cl)Cl`: the outcome is “active; multisite active; multisex active; multispecies active”.

For `Cc1ccc(N)cc1N`, the outcome was “active; multisite active; multisex active; multispecies active”.

For `CCOC(=O)[C@H](CCc1ccccc1)N[C@@H](C)C(=O)N1Cc2ccccc2C[C@H]1C(=O)O`, the outcome was “inactive; multisex inactive; multispecies inactive”.

For `Cc1ccccc1OCC(O)CNCCn1cc(C)c(=O)[nH]c1=O` (stereo unspecified), the outcome was “inactive; multisex inactive”.

As for `O=P1(NCCCl)OCCCN1CCCl` (stereo unspecified), the outcome was “active; multisite active; multisex active; multispecies active”.

For `CCN(N=O)C(=O)NCC(C)=O`, the outcome was “active; multisite active; multisex active; multispecies active”.

For the compound `c1ccoc1`, the outcome was “active; multisite active; multisex active; multispecies active”.

As for `CC(=O)O[C@]1(C(C)=O)CC[C@H]2[C@@H]3C=C(Cl)C4=CC(=O)[C@@H]5C[C@@H]5[C@]4(C)[C@H]3CC[C@@]21C`, the outcome is “active; multisite active; multisex active”.

As for `COC(C)(C)C`, the outcome is “active; multisite active; multisex active; multispecies active”.

`O=C(O)c1cccnc1`: the outcome is “inactive; multisex inactive”.

Regarding `CC(CCl)OC(C)CCl` (stereo unspecified), the outcome was “active; multisite active; multisex active”.

As for `O=[N+]([O-])c1cccc2ccccc12`, the outcome was “inactive; multisex inactive; multispecies inactive”.

For `c1ccc2n[nH]nc2c1`, the outcome was “inactive; multisex inactive; multispecies inactive”.

On to `Clc1ccc2c(c1)Oc1ccc(Cl)cc1O2`, for which the outcome was “inactive; multisex inactive; multispecies inactive”.

For the compound `Cc1c2oc3c(C)ccc(C(=O)N[C@@H]4C(=O)N[C@H](C(C)C)C(=O)N5CCC[C@H]5C(=O)N(C)CC(=O)N(C)[C@@H](C(C)C)C(=O)O[C@@H]4C)c3nc-2c(C(=O)N[C@@H]2C(=O)N[C@H](C(C)C)C(=O)N3CCC[C@H]3C(=O)N(C)CC(=O)N(C)[C@@H](C(C)C)C(=O)O[C@@H]2C)c(N)c1=O` (I: T[dV]P[Sar][NMeV] / II: T[dV]P[Sar][NMeV]; ester I:1-I:C, II:1-II:C; linker I:N-II:N via Actinocin(9to1)), the outcome is “active; multisex active”.

Consider `CNc1ccc(N(CCO)CCO)cc1[N+](=O)[O-]`, for which the outcome is “active; multisite active; multisex active; multispecies active”.

As to `O=C1OC(c2ccc(O)cc2)(c2ccc(O)cc2)c2ccccc21`, the outcome is “active; multisite active; multisex active; multispecies active”.

For `CCC(O)OC(O)CC` (stereo unspecified), the outcome is “inactive; multisex inactive; multispecies inactive”.

As for `O=C(O)/C=C/c1ccc(O)c(O)c1`, the outcome is “active; multisite active; multisex active; multispecies active”.

Take `c1ccc2c(c1)Oc1ccccc1O2`: the outcome is “inactive; multisex inactive; multispecies inactive”.

`C[C@@H]1CC2(O[C@@H]2C)C(=O)O[C@@H]2CCN(C)C/C=C(/COC(=O)[C@]1(C)O)C2=O` (stereo partly specified): the outcome is “active; multisite active; multisex active”.

Consider `CCCCNC(=O)NS(=O)(=O)c1ccc(C)cc1`, for which the outcome was “inactive; multisex inactive; multispecies inactive”.

For `O=C1CCC(=O)O1`, the outcome is “inactive; multisex inactive; multispecies inactive”.

On to `NC(=O)c1ccncc1`, for which the outcome is “inactive; multisex inactive”.

As to `C=CCc1ccc(OC)c(OC)c1`, the outcome is “active; multisite active; multisex active; multispecies active”.

Turning to `CCc1ccccc1`, the outcome was “active; multisite active; multisex active; multispecies active”.

For `CC1=CC(=O)CC(C)(C)C1`, the outcome is “active; multisite active”.

`Clc1ccc(C(c2ccc(Cl)cc2)C(Cl)Cl)cc1`: the outcome is “active; multisite active; multisex active”.

In the case of `[K+]`, the outcome was “active; multisex active”.

Turning to `C[N+](C)(C)CCO`, the outcome is “inactive; multispecies inactive”.

As to `CCCCCCCCCCCCCCN(C)N=O`, the outcome was “active; multisite active”.
